Assay results as given in patent US12440568B2 (priority 2010, dated 2025).

Assays:
[1] = Company studies of solubility and sustained release
[2] = test system: Cell lines of human bladder cancer; test: MTT viability assay, MMC in DTC-2 versus MMC in saline; format: cell-based; details: cell lines exposed to MMC
Description: An in-vitro study was performed to evaluate the efficacy of DTCx materials as cytotoxic agents in the urinary bladder. […] Viability was assessed by MTT assay which tests mitochondrial function.
Cell lines of human bladder cancer were grown in RPMI 1640 medium, supplemented with FBS, 100 U/ml penicillin and […] streptomycin. […] After 2 hours of incubation, medium was replaced with fresh medium for all plates.
The plates were tested by taking out the medium and adding fresh medium containing MTT reagent. All other plates were returned to the incubator for incubation of 24, 72, 120 and 144 h. MTT assays were used to assess toxicity at all time points. The proportion of living cells was calculated by comparison to the control vehicle.
A microplate reader (EL 312e: Bio-Tek Instruments, Winooski VT) was used to evaluate the presence of […] as a color development measured by absorbance spectroscopy at 450 nm. Background optical density (OD) was subtracted from the OD readings of all samples. Cell viability was calculated by dividing the mean OD absorbance values of the treated wells by the mean OD absorbance of the control wells. All samples were tested in triplicate.
Reference is now made to FIGS. 3A-3D, which show graphs of cell viability as a function of time for various experiments.

[3] = test system: TCC cell cultures and human bladder tumor tissue cultures; details: cited from earlier work

Q: Which “Solubility and release behaviour in the invented platform” value (shortened to “Solubility and release behaviour”) [1] does the source give for Abamectin here?
A: solubility and first order sustained release

Q: Which “Solubility and release behaviour” value [1] does the source give for `Nc1ccn([C@@H]2O[C@H](CO)[C@@H](O)C2(F)F)c(=O)n1` [Gemcitabin] here?
A: solubility and first order sustained release

Q: For `O=C(O)Cc1ccccc1Nc1c(Cl)cccc1Cl` [voltaren], which “Solubility and release behaviour” value [1] is on record?
A: solubility and first order sustained release

Q: With `COc1cccc2c1C(=O)c1c(O)c3c(c(O)c1C2=O)C[C@@](O)(C(=O)CO)C[C@@H]3O[C@H]1C[C@H](N)[C@H](O)[C@H](C)O1` [Doxorubicin] as the compound, how does the “Solubility and release behaviour” value [1] read?
A: solubility and first order sustained release

Q: With `CO[C@@]12[C@H](COC(N)=O)C3=C(C(=O)C(C)=C(N)C3=O)N1C[C@@H]1N[C@@H]12` [MMC, Mitomycin C] as the compound, how does the “Higher cell kill with 10× longer exposure time or 10× higher concentration” value [2] read?
A: up to 30 ×

Q: What about the “Concentration needed for similar cell kill effect when exposure reduced from 24 hours to two hours” value [3] of the same compound?
A: ten times higher concentration
